Structures can show the parent of a compound that is named as a salt.
How the values were obtained:
[1] = test system: Goto-Kakizaki Wistar rats (GK rats); test: Oral glucose tolerance test and starving plasma glucose in GK rats (Example 1); assay type: in vivo, rat
Description: Nineteen male Goto-Kakizaki Wistar rats (GK rats) with weights of 300±20 g were kept in steel cages, 3-4 rats per cage. The cages were changed every two days. Indoor temperature and relative humidity was kept at 23±3° C. and 65±1% respectively. Feed and drinking water was provided. GK rats were permitted a one-month period for adaptation.
One day prior to experimentation, at 17:00, all of the feed was removed from all groups, but not the drinking water. On the second day, at 09:30, starving plasma glucose was measured for all GK rats. At 10:00, glucose tolerance test (2 g/kg BW) was performed and the plasma glucose level was measured as well for all GK rats. On the third day, the GK rats of the control group were orally administered a saline solution (2 ml/rat) and the GK rats in treatment I and II groups were orally administered a solution of Metformin (17 mg/kg body weight (BW), 2 ml once pre day at 09:30). This regimen was performed for the following several days. On the ninth day, starving plasma glucose was measured and oral glucose tolerance test was performed again for all GK rats in all groups.
On the tenth day, the regimen for the GK rats in the treatment II group was changed to an oral administration of Metformin with cysteamine hydrochloride (Metformin 17 mg/kg BW, cysteamine hydrochloride 15 mg/kg BW) for the following 6 days, while the regimen for the control group and the treatment I group remained unchanged. This regimen was performed for six days.
Six days following the change in regimen, starving plasma glucose was measured and glucose tolerance tests were performed, and blood and tissue samples were collected (liver, duodenum, pancreas gland, fat, and muscle) for all GK rats in all groups. Blood samples were stored at 4° C. for three hours and centrifuged for ten minutes at 3500 rpm. Then, the serum was collected and stored at −20° C. Tissue samples were placed in liquid nitrogen once collected and then stored in −80° C.
The glucose tolerance tests that were performed included the steps of starving the GK rats overnight. Next day at 09:30, starving plasma glucose was measured. At 10:00, oral administration of a glucose solution (2 g/kg BW) was performed. Blood samples were collected via tail vein at 0, 0.5, 1, 2, and 3 hours and then performed with the plasma glucose testing equipment.

GK diabetic rats = test: Glucose tolerance test in GK diabetic rats (Example 2); assay type: in vivo, rat; conditions: for glucose levels in glucose tolerance test (in words): GK diabetic rats; for Glucose tolerance test, plasma glucose, Fasting / Glucose tolerance test, plasma glucose, 0.5 hour / Glucose tolerance test, plasma glucose, 1 hour / Glucose tolerance test, plasma glucose, 2 hours / Glucose tolerance test, plasma glucose, 3 hours: Mean ± STD, DC 22.5 mg/kg BW, Metformin 34 mg/kg BW by gavage; for Glucose tolerance test, plasma glucose, Fasting: 20 days (combination in second 10 days); for Glucose tolerance test, plasma glucose, 0.5 hour / Glucose tolerance test, plasma glucose, 1 hour / Glucose tolerance test, plasma glucose, 2 hours / Glucose tolerance test, plasma glucose, 3 hours: after glucose 2 g/kg BW, 20 days
Description: Food and water were provided ad libitum.
The 36 GK rats were divided into 4 groups based on body weight (BW) and plasma glucose level. […] All animals were treated at 10:00 for 20 days.
(§1) The four groups of animals were kept in the same room (temp 23±3° C., relative humidity 65±1%) in different cages with wire mesh bottoms to reduce coprophagia throughout the experiment. The rats were subjected to fasting overnight from 10:00 pm to 09:30 of the following day before being subjected to a glucose tolerance test. The rats were treated with glucose 2 g/kg BW in 2 ml tap water at 09:30 for the glucose tolerance test and the blood was collected from the tail vein at 0.5, 1, 2, and 3 hours after glucose injection. Plasma glucose concentrations were determined by Glucotrendr2 equipment (Roche Diagnostics, Basel, Switzerland). Plasma insulin concentrations were determined by radioimmunoassay (Insulin RIA Kit, NO:0410, purchased from Shanghai Radioimmunoassay Research Institution). […] The “p” value is the comparison with the control group.

Insulin = test: Plasma insulin by radioimmunoassay in GK diabetic rats (Example 2); assay type: in vivo, rat; conditions: for Fasting Insulin: Mean ± STD, DC 22.5 mg/kg BW, Metformin 34 mg/kg BW
Description: (§2) The 36 GK rats were divided into 4 groups based on body weight (BW) and plasma glucose level. […] All animals were treated at 10:00 for 20 days. […] Plasma glucose concentrations were determined by Glucotrendr2 equipment (Roche Diagnostics, Basel, Switzerland). Plasma insulin concentrations were determined by radioimmunoassay (Insulin RIA Kit, NO:0410, purchased from Shanghai Radioimmunoassay Research Institution). The effects on plasma glucose level are shown in Table 4, the effects on plasma insulin and adiponectin levels are shown in Table 5, and the effects on different tissues are shown in Table 6. The “p” value is the comparison with the control group.

adiponectin = test: Adiponectin level in GK diabetic rats (Example 2); assay type: in vivo, rat; conditions: for Adiponectin: Mean ± STD, DC 22.5 mg/kg BW, Metformin 34 mg/kg BW
Description: The 36 GK rats were divided into 4 groups based on body weight (BW) and plasma glucose level. Group 1 (control, n=10) was treated with saline by gavage (2 ml/rat) Group 2 (DC, n=6) was treated with cysteamine hydrochloride by gavage (22.5 mg/kg BW in 2 ml tap water); Group 3 (Metformin, Met, n=10) was treated with Metformin by gavage (34 mg/kg BW in 2 ml tap water); Group 4 (Met+DC, n=10) was treated with Metformin 34 mg/kg BW/day in 2 ml tap water for the first 10 days and then was treated with both cysteamine hydrochloride 22.5 mg/kg BW plus Metformin 34 mg/kg BW in 2 ml tap water for the second 10 days. All animals were treated at 10:00 for 20 days.
as §1

[2] = test system: glucose transporter (glut4); test: Glucose transporter (glut4) expression in tissues of GK diabetic rats (Example 2); assay type: in vivo, rat; conditions: for expression of total glut4 in liver, muscles, adipocytes (in words): GK rats; for glut4 expression, adipocyte, fold changes compared with control level / glut4 expression, liver, fold changes compared with control level / glut4 expression, muscle, fold changes compared with control level: Mean ± STD, GK diabetic rats
Description: as §2

diabetic patients = test: Open-label randomized trial in patients with diabetes type II (Example 3); assay type: in vivo, human
Description: The cysteamine alone (DC) group was treated with 540 mg/day of cysteamine hydrochloride.

[3] = late-phase, Metformin 17 mg/kg BW, cysteamine hydrochloride 15 mg/kg BW oral for 6 days
[4] = mid-phase, Treatment I group, 6 days oral Metformin 17 mg/kg BW, glucose 2 g/kg BW
[5] = mid-phase, Treatment II group (Metformin 17 mg/kg BW only, before cysteamine hydrochloride was added)
[6] = cysteamine hydrochloride 540 mg/day, two months
[7] = pre-treatment minus post-treatment

CN(C)C(=N)N=C(N)N [Metformin]
duodenal plasma glucose levels and insulin resistance (in words) ([1]; GK rats, oral administration): to some extent, lowers
Glucose tolerance test, plasma glucose, 0.5 hour [1, 3]: 12.98
Glucose tolerance test, plasma glucose, 1 hour [1, 3]: 13.42
Glucose tolerance test, plasma glucose, 2 hours [1, 3]: 8.6
Glucose tolerance test, plasma glucose, 3 hours [1, 3]: 6.67
Glucose tolerance test, plasma glucose, Starving [1, 3]: 4.75
Glucose tolerance test, plasma glucose, Starving ([1]; mid-phase, Treatment I group, 6 days oral Metformin 17 mg/kg BW): 4.98
Glucose tolerance test, plasma glucose, 0.5 hour [1, 4]: 15.68
Glucose tolerance test, plasma glucose, 1 hour [1, 4]: 15.93
Glucose tolerance test, plasma glucose, 2 hours [1, 4]: 10.55
Glucose tolerance test, plasma glucose, 3 hours [1, 4]: 8.5
Glucose tolerance test, plasma glucose, 0.5 hour [1, 5]: 15.65
Glucose tolerance test, plasma glucose, 1 hour [1, 5]: 15.8
Glucose tolerance test, plasma glucose, 2 hours [1, 5]: 10.55
Glucose tolerance test, plasma glucose, 3 hours [1, 5]: 8.37
Glucose tolerance test, plasma glucose, Starving [1, 5]: 5.03
glucose levels in glucose tolerance test (in words) (GK diabetic rats): statistically significantly different
Glucose tolerance test, plasma glucose, Fasting (GK diabetic rats): 5.53 ± 0.53 mmol/L
Glucose tolerance test, plasma glucose, 0.5 hour (GK diabetic rats): 15.24 ± 1.34 mmol/L
Glucose tolerance test, plasma glucose, 1 hour (GK diabetic rats): 13.98 ± 0.95 mmol/L
Glucose tolerance test, plasma glucose, 2 hours (GK diabetic rats): 9.62 ± 0.83 mmol/L
Glucose tolerance test, plasma glucose, 3 hours (GK diabetic rats): 7.71 ± 1.37 mmol/L
insulin levels (in words) (Insulin): decreased, but not statistically significant
Fasting Insulin (Insulin): 18.75 ± 3.98 IU/L
adiponectin (in words) (adiponectin): not
Adiponectin (adiponectin): 3917 ± 416 ng/mL
expression of total glut4 in liver, muscles, adipocytes (in words) [2]: increased, but not significantly
glut4 expression, adipocyte, fold changes compared with control level [2]: 2.14 ± 1.39 fold
glut4 expression, liver, fold changes compared with control level [2]: 2.43 ± 1.85 fold
glut4 expression, muscle, fold changes compared with control level [2]: 1.38 ± 0.67 fold
insulin-like growth factor 1 (IGF1) (in words) (diabetic patients): decrease

NCCS [cysteamine hydrochloride]
glucose levels in glucose tolerance test (in words) (GK diabetic rats): did not affect
Glucose tolerance test, plasma glucose, Fasting (GK diabetic rats): 5.80 ± 0.36 mmol/L
Glucose tolerance test, plasma glucose, 0.5 hour (GK diabetic rats): 16.68 ± 1.1 mmol/L
Glucose tolerance test, plasma glucose, 1 hour (GK diabetic rats): 15.68 ± 0.8 mmol/L
Glucose tolerance test, plasma glucose, 2 hours (GK diabetic rats): 11.00 ± 0.8 mmol/L
Glucose tolerance test, plasma glucose, 3 hours (GK diabetic rats): 8.33 ± 0.64 mmol/L
insulin levels (in words) (Insulin): did not affect
Fasting Insulin (Insulin): 22.46 ± 2.65 IU/L
adiponectin (in words) (adiponectin): significantly increased
Adiponectin (adiponectin): 4318 ± 590 ng/mL
expression of total glut4 in liver, muscles, adipocytes (in words) [2]: significantly increase
glut4 expression, adipocyte, fold changes compared with control level [2]: 2.7 ± 1.16 fold
glut4 expression, liver, fold changes compared with control level [2]: 3.77 ± 3.15 fold
glut4 expression, muscle, fold changes compared with control level [2]: 1.5 ± 0.74 fold
C peptide (CP) (in words) (diabetic patients): decreases significantly
HOMA (Homeostasis Model Assessment) (in words) (diabetic patients): decreases significantly
blood uric acid (UA) levels (in words) (diabetic patients): decreases significantly
fasting insulin (FINS) (in words) (diabetic patients): decreases significantly
insulin-like growth factor 1 (IGF1) (in words) (diabetic patients): decreases significantly
microalbuminuria (in words) (diabetic patients): obvious but not statistically significantly
24 h Microalbuminuria, Post-treatment (diabetic patients; [6]): 30.97 ± 25.12
FBS (fasting blood sugar), Post-treatment (diabetic patients; [6]): 8.21 ± 2.43
FCP (C peptide), Post-treatment (diabetic patients; [6]): 557 ± 119
FINS (fasting insulin), Post-treatment (diabetic patients; [6]): 13.25 ± 6.36
HOMA (Homeostasis Model Assessment), Post-treatment (diabetic patients; [6]): 5.43 ± 3.19
IGF, Post-treatment (diabetic patients; [6]): 44.37 ± 7.28
UA (blood uric acid), Post-treatment (diabetic patients; [6]): 359 ± 60.16
24 h Microalbuminuria, Paired Difference (diabetic patients; [7]): 11.77 ± 40.73
FBS, Paired Difference (diabetic patients; [7]): −0.69 ± 2.11
FCP, Paired Difference (diabetic patients; [7]): 182 ± 164
FINS, Paired Difference (diabetic patients; [7]): 22.14 ± 19.39
HOMA, Paired Difference (diabetic patients; [7]): 6.51 ± 4.94
IGF, Paired Difference (diabetic patients; [7]): 4.99 ± 5.12
UA, Paired Difference (diabetic patients; [7]): 29.5 ± 37.87
